These results are taken from PubChem BioAssay (NCI).

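Test compounds were applied to cells in 96-well plates for 48 hours at 5 doses. GI50: concentration for 50% inhibition of growth. TGI: concentration producing complete growth inhibition.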

The first assay concerns MDA-MB-435. The assay can be described thus: DTP human tumour cell line panel, 48 h.
`CCCSc1ccc2[nH]c(/N=C/c3ccco3)cc2c1`: the TGI is more than 100 µM.
`Cc1cn(C2CC(n3cc(Cn4cc(Br)c(=O)[nH]c4=O)nn3)C(CO)O2)c(=O)[nH]c1=O` (stereo not drawn): the TGI is more than 100 µM.
On the same count and under the same terms, under `C1CNCCNCCN1` stands more than 100 µM.
On to `CC1Cn2c(nc3ccccc32)NC1=O` (stereo not drawn), for which the TGI is more than 100 µM.
Turning to `O=c1nc2c(c(-c3ccccc3Cl)[nH]1)COC/C2=C\c1ccccc1Cl`, the total growth inhibition concentration (TGI) is more than 100 µM.

For another assay, the system named is MOLT-4 leukemia. Briefly: DTP human tumour cell line panel, 48 h.
For `CCC1(C(=O)OC(C)(C)C)OC12C(C)CCCC2C` (stereo not drawn), the TGI worked out at 41.2 µM.
Same read-out and setting: in the case of `Cc1ccc(-c2cc(N)n(-c3nc4c(c(=O)n(C)c(=O)n4C)n3C)n2)cc1` it was more than 100 µM.
For `CN(C)c1ccc(C2SCC(=O)N2NS(=O)(=O)c2cccc(C(=O)O)c2)cc1` (stereo not drawn), the concentration for total growth inhibition (TGI) was more than 100 µM.
In turn, `COC(=O)[C@H](Cc1ccccc1)NC(=O)[C@H](Cc1ccccc1)NC(=O)[C@@H]1CCCN1C(=O)N[C@H]1C2C=CC(C2)C1C(=O)N1CCC[C@H]1C(=O)N[C@@H](C)C(=O)N[C@H](C(=O)OC)C(C)C` (stereo partly drawn) showed a total growth inhibition concentration (TGI) of 85.6 µM.
The same measure, in the same setting: in the case of `O=C1c2ccccc2-c2nc(-c3cccc([N+](=O)[O-])c3)nnc21` it was more than 100 µM.
Take `CNC(=O)Oc1ccc(-c2cn3cc(OC(=O)NC)ccc3n2)cc1`: the total growth inhibition concentration (TGI) is more than 100 µM.
The same measure, in the same setting: in the case of `CC(=O)N1N=C(c2ccc3ccccc3c2O)CC1C(=O)c1ccco1` (stereo not drawn) it was 24.4 µM; in that of `N#Cc1nc(-c2cccs2)oc1N`, more than 100 µM.
The same measure, in the same setting: under `O=c1c2c([N+](=O)[O-])cccc2nc2[nH]c3ccccc3n12` stands more than 75 µM.
In turn, `O=C(NCCCCCCNCc1cccc2ccccc12)Nc1cccc2ccccc12` gave a TGI of more than 100 µM.
On to `OCC1OC(n2cnc3c(Cl)nc(Nc4ccccc4)nc32)CC1O` (stereo not drawn), for which the concentration for total growth inhibition (TGI) was more than 100 µM.
On to `C[C@]12CCc3nc(Nc4ccccc4)sc3C1=CC[C@@H]1[C@@H]2CC[C@]2(C)/C(=N/NC(N)=S)CC[C@@H]12`, for which the GI50 was 1.88 µM and the TGI was more than 100 µM.
Consider `Nc1cccc(Nc2nc3ccccc3nc2NS(=O)(=O)c2ccccc2)c1`, for which the concentration for total growth inhibition (TGI) turned out to be 48.9 µM.
Same read-out and setting: under `CCn1nc2c3c(ncn3C(C)(C)O2)c1=O` stands more than 100 µM; under `O=C(O)CC[N+]1=CCC(c2ccccc2)(c2ccccc2)O1`, more than 100 µM.
Same read-out and setting: in the case of `O=C1CCCCC(=O)OC2(CCCCC2=O)CC1` (stereo not drawn) it was more than 100 µM; in that of `CCC(C#N)NC(=O)NC(C#N)CC` (stereo not drawn), more than 100 µM; in that of `CCOC(=O)/C=C(/C(=O)OCC)n1ccc(N)nc1=O`, more than 100 µM.
On the same count and under the same terms, in the case of `Cc1cn(C2CC(n3cc(Cn4cc(Br)c(=O)[nH]c4=O)nn3)C(CO)O2)c(=O)[nH]c1=O` (stereo not drawn) it was more than 100 µM; in that of `C1CNCCNCCN1`, more than 100 µM.
The molecule `CC1Cn2c(nc3ccccc32)NC1=O` (stereo not drawn) had a total growth inhibition concentration (TGI) of more than 100 µM.
Still for that read-out and setting: under `O=c1nc2c(c(-c3ccccc3Cl)[nH]1)COC/C2=C\c1ccccc1Cl` stands more than 100 µM.

Another assay concerns NCI-H522 lung. The assay can be described thus: DTP human tumour cell line panel, 48 h.
In turn, `CCC1(C(=O)OC(C)(C)C)OC12C(C)CCCC2C` (stereo not drawn) registered a TGI of more than 100 µM.
For `Cc1ccc(-c2cc(N)n(-c3nc4c(c(=O)n(C)c(=O)n4C)n3C)n2)cc1`, the concentration for total growth inhibition (TGI) is more than 100 µM.
Consider `CN(C)c1ccc(C2SCC(=O)N2NS(=O)(=O)c2cccc(C(=O)O)c2)cc1` (stereo not drawn), for which the concentration for total growth inhibition (TGI) is more than 100 µM.
As to `COC(=O)[C@H](Cc1ccccc1)NC(=O)[C@H](Cc1ccccc1)NC(=O)[C@@H]1CCCN1C(=O)N[C@H]1C2C=CC(C2)C1C(=O)N1CCC[C@H]1C(=O)N[C@@H](C)C(=O)N[C@H](C(=O)OC)C(C)C` (stereo partly drawn), the TGI is more than 100 µM.
Still for that read-out and setting: under `O=C1c2ccccc2-c2nc(-c3cccc([N+](=O)[O-])c3)nnc21` stands more than 100 µM.
Still for that read-out and setting: in the case of `CC(=O)N1N=C(c2ccc3ccccc3c2O)CC1C(=O)c1ccco1` (stereo not drawn) it was 76.6 µM; in that of `N#Cc1nc(-c2cccs2)oc1N`, 92 µM; in that of `O=C(NCCCCCCNCc1cccc2ccccc12)Nc1cccc2ccccc12`, more than 100 µM.
On the same count and under the same terms, under `OCC1OC(n2cnc3c(Cl)nc(Nc4ccccc4)nc32)CC1O` (stereo not drawn) stands 10.6 µM; under `CC1(CF)SCc2nc3ccccc3n21` (stereo not drawn), more than 100 µM.
With `C[C@]12CCc3nc(Nc4ccccc4)sc3C1=CC[C@@H]1[C@@H]2CC[C@]2(C)/C(=N/NC(N)=S)CC[C@@H]12`, the GI50 was 3.07 µM and the total growth inhibition concentration (TGI) is more than 100 µM.
Consider `NCCSc1nc2ccccc2c(=O)n1-c1ccccc1`, for which the TGI was more than 100 µM.
On the same count and under the same terms, in the case of `O=c1[nH]nc(Cc2ccc([N+](=O)[O-])cc2)n1CCO` it was more than 100 µM; in that of `CCn1nc2c3c(ncn3C(C)(C)O2)c1=O`, more than 100 µM; in that of `O=C(O)CC[N+]1=CCC(c2ccccc2)(c2ccccc2)O1`, more than 100 µM.
On the same count and under the same terms, in the case of `O=C1CCCCC(=O)OC2(CCCCC2=O)CC1` (stereo not drawn) it was more than 100 µM; in that of `CCC(C#N)NC(=O)NC(C#N)CC` (stereo not drawn), more than 100 µM; in that of `CCOC(=O)/C=C(/C(=O)OCC)n1ccc(N)nc1=O`, 54.8 µM.
On to `CCCSc1ccc2[nH]c(/N=C/c3ccco3)cc2c1`, for which the concentration for total growth inhibition (TGI) came out at 78.2 µM.
In the case of `C1CNCCNCCN1`, the TGI is more than 100 µM.
Still for that read-out and setting: in the case of `CC1Cn2c(nc3ccccc32)NC1=O` (stereo not drawn) it was more than 100 µM.

The next assay relates to OVCAR-3 ovarian. Briefly: DTP human tumour cell line panel, 48 h.
`CCC1(C(=O)OC(C)(C)C)OC12C(C)CCCC2C` (stereo not drawn) displayed a TGI of more than 100 µM.
The same measure, in the same setting: in the case of `Cc1ccc(-c2cc(N)n(-c3nc4c(c(=O)n(C)c(=O)n4C)n3C)n2)cc1` it was more than 100 µM; in that of `CN(C)c1ccc(C2SCC(=O)N2NS(=O)(=O)c2cccc(C(=O)O)c2)cc1` (stereo not drawn), more than 100 µM; in that of `COC(=O)[C@H](Cc1ccccc1)NC(=O)[C@H](Cc1ccccc1)NC(=O)[C@@H]1CCCN1C(=O)N[C@H]1C2C=CC(C2)C1C(=O)N1CCC[C@H]1C(=O)N[C@@H](C)C(=O)N[C@H](C(=O)OC)C(C)C` (stereo partly drawn), more than 100 µM.
The molecule `CNC(=O)Oc1ccc(-c2cn3cc(OC(=O)NC)ccc3n2)cc1` gave a TGI of more than 100 µM.
The same measure, in the same setting: in the case of `CC(=O)N1N=C(c2ccc3ccccc3c2O)CC1C(=O)c1ccco1` (stereo not drawn) it was more than 100 µM; in that of `N#Cc1nc(-c2cccs2)oc1N`, more than 100 µM.
`O=c1c2c([N+](=O)[O-])cccc2nc2[nH]c3ccccc3n12` yielded a concentration for total growth inhibition (TGI) of 70.3 µM.
On the same count and under the same terms, under `O=C(NCCCCCCNCc1cccc2ccccc12)Nc1cccc2ccccc12` stands more than 100 µM.
Still for that read-out and setting: under `OCC1OC(n2cnc3c(Cl)nc(Nc4ccccc4)nc32)CC1O` (stereo not drawn) stands more than 100 µM; under `CC1(CF)SCc2nc3ccccc3n21` (stereo not drawn), more than 100 µM.
Still for that read-out and setting: under `NCCSc1nc2ccccc2c(=O)n1-c1ccccc1` stands more than 100 µM.
`Nc1cccc(Nc2nc3ccccc3nc2NS(=O)(=O)c2ccccc2)c1` displayed a concentration for total growth inhibition (TGI) of 47.3 µM. That is a double-digit micromolar value.
On the same count and under the same terms, in the case of `O=c1[nH]nc(Cc2ccc([N+](=O)[O-])cc2)n1CCO` it was more than 100 µM; in that of `N#Cc1c(-c2ccccc2)nc(-c2ccccc2)sc1=S`, more than 100 µM.
`O=C(O)CC[N+]1=CCC(c2ccccc2)(c2ccccc2)O1` yielded a TGI of more than 100 µM.
Still for that read-out and setting: under `O=C1CCCCC(=O)OC2(CCCCC2=O)CC1` (stereo not drawn) stands more than 100 µM; under `CCC(C#N)NC(=O)NC(C#N)CC` (stereo not drawn), more than 100 µM.

The term TGI denotes the concentration giving total growth inhibition. Higher therefore signals lower sensitivity of the cells. A word on the GI50: it is the concentration giving 50% growth inhibition.
